Experimental data from patent US12472193B2, “Methods and compositions for treating and preventing respiratory related diseases and conditions with xylitol-headgroup lipid analogs” (National Jewish Health, priority 2017, dated 2025).

Test system: RSV
Test: 18:1 DEPX interference with RSV infection in vivo (BALB/c mice)
Design: species or system mouse
Conditions: 250 μg 18:1 DEPX intranasal, day 6

Structure (SMILES): CCCCCCCCC=CCCCCCCCCOCC(COP(=O)(O)OCC(O)C(O)C(O)CO)OCCCCCCCCC=CCCCCCCCC (mixture of isomers) [18:1 DEPX, sn-1-O-octadecenyl, sn-2-O-octadecenyl sn-3 glycerol phosphoxylitol]
- reduction of viral burden by a factor of (qRT-PCR, FIGS. 12A and 12B): 6.2
